{"source": "the kinase profiling compilation of Christmann-Franck et al. (2016)", "assay_in_all_cases": "KINOMEscan competition binding", "conditions_in_all_cases": "compound 10.0 µM", "key": {"CDK13 (human)": {"target": "CDK13 (human) (UniProt Q14004)"}, "CDK19 (human)": {"target": "CDK19 (human) (UniProt Q9BWU1)"}, "CDK8 (human)": {"target": "CDK8 (human) (UniProt P49336)"}, "CHEK2 (human)": {"target": "CHEK2 (human) (UniProt O96017)"}, "CLK2 (human)": {"target": "CLK2 (human) (UniProt P49760)"}, "CRK2 (P.falciparum)": {"target": "CRK2 (P.falciparum) (UniProt P61075)"}, "DSTYK (human)": {"target": "DSTYK (human) (UniProt Q6XUX3)"}, "[1]": {"tested_on": "EGFR (human), P00533 [T790M/L858R]"}, "FGR (human)": {"target": "FGR (human) (UniProt P09769)"}, "HIPK2 (human)": {"target": "HIPK2 (human) (UniProt Q9H2X6)"}, "IRAK1 (human)": {"target": "IRAK1 (human) (UniProt P51617)", "sequence (P51617 whole entry, looked up)": "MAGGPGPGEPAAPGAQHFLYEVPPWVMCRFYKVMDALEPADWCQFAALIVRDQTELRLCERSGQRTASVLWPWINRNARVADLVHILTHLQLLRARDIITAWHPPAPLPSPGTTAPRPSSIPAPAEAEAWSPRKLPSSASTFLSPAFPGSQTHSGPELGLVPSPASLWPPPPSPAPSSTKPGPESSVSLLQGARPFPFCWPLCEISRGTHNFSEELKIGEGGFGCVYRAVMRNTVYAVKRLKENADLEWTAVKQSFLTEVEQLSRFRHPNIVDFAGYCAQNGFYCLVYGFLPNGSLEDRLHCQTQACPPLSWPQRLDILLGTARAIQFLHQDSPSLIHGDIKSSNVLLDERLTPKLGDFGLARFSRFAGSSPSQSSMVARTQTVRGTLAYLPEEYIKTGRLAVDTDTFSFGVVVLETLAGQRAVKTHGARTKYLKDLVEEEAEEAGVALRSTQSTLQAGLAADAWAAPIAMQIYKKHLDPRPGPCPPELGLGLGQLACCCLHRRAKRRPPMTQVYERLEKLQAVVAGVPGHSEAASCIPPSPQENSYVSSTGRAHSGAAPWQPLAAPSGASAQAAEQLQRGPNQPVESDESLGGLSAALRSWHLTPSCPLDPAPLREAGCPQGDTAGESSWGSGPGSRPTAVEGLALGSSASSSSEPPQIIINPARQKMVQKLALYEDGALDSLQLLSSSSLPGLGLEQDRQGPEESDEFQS"}, "IRAK4 (human)": {"target": "IRAK4 (human) (UniProt Q9NWZ3)", "sequence (Q9NWZ3 whole entry, looked up)": "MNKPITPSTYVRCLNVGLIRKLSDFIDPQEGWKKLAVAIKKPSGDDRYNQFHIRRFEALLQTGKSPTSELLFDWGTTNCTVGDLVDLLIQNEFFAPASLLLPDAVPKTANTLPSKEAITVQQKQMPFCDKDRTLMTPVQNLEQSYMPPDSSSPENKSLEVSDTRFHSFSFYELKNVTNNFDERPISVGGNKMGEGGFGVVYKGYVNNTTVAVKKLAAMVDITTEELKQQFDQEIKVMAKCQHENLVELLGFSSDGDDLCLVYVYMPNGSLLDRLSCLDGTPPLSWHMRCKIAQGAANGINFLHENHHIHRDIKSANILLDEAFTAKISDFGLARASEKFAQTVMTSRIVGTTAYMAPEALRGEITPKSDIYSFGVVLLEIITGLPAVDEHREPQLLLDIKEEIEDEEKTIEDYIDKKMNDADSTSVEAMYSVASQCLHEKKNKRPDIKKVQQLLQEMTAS"}, "[2]": {"tested_on": "KIT (human), P10721 [V559D/V654A]"}, "LCK (human)": {"target": "LCK (human) (UniProt P06239)"}, "MAP2K3 (human)": {"target": "MAP2K3 (human) (UniProt P46734)"}, "MAP3K15 (human)": {"target": "MAP3K15 (human) (UniProt Q6ZN16)"}, "MAPK9 (human)": {"target": "MAPK9 (human) (UniProt P45984)", "sequence (P45984 whole entry, looked up)": "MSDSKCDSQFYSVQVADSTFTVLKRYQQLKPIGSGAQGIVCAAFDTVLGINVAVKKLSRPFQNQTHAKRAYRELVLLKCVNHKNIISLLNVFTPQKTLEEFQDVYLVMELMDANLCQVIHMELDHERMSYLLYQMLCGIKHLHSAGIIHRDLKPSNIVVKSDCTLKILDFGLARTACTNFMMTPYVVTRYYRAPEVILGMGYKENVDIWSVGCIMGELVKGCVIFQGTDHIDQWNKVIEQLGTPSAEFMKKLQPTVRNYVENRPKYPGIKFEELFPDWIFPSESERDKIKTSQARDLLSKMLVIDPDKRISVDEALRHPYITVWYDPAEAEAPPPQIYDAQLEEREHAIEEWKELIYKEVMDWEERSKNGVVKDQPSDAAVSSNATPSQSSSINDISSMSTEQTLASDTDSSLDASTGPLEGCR"}, "MET (human)": {"target": "MET (human) (UniProt P08581)"}, "MYLK4 (human)": {"target": "MYLK4 (human) (UniProt Q86YV6)"}, "NEK3 (human)": {"target": "NEK3 (human) (UniProt P51956)"}, "PDGFRA (human)": {"target": "PDGFRA (human) (UniProt P16234)", "sequence (P16234 whole entry, looked up)": "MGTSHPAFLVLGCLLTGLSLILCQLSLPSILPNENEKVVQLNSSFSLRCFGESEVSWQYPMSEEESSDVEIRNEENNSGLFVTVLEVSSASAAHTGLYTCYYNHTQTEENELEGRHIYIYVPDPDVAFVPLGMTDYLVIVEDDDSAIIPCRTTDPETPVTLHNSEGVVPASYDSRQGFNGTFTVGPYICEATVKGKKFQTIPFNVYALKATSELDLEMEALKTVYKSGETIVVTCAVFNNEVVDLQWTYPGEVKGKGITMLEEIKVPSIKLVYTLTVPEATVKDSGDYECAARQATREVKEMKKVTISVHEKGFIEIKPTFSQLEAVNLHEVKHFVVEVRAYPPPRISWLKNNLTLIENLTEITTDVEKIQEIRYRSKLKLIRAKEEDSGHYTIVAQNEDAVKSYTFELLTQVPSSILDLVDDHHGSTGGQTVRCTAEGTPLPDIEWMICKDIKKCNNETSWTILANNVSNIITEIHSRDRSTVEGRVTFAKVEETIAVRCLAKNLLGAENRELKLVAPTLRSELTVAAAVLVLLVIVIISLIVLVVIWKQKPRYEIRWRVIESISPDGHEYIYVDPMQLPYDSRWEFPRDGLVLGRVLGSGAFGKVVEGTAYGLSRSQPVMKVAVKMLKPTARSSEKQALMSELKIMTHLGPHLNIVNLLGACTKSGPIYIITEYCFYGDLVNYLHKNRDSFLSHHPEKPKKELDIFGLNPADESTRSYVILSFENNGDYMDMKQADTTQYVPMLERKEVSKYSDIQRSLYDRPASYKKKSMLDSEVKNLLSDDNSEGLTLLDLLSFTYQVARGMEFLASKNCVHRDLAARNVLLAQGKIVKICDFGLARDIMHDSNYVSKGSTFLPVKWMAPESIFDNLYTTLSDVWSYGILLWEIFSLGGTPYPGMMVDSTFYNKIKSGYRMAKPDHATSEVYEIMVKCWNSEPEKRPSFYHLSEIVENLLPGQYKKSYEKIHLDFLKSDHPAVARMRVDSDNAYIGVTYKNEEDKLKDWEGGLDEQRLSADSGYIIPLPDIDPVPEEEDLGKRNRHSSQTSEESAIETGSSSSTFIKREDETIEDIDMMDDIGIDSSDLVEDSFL"}, "PDPK1 (human)": {"target": "PDPK1 (human) (UniProt O15530)"}, "PKN2 (human)": {"target": "PKN2 (human) (UniProt Q16513)", "sequence (Q16513 whole entry, looked up)": "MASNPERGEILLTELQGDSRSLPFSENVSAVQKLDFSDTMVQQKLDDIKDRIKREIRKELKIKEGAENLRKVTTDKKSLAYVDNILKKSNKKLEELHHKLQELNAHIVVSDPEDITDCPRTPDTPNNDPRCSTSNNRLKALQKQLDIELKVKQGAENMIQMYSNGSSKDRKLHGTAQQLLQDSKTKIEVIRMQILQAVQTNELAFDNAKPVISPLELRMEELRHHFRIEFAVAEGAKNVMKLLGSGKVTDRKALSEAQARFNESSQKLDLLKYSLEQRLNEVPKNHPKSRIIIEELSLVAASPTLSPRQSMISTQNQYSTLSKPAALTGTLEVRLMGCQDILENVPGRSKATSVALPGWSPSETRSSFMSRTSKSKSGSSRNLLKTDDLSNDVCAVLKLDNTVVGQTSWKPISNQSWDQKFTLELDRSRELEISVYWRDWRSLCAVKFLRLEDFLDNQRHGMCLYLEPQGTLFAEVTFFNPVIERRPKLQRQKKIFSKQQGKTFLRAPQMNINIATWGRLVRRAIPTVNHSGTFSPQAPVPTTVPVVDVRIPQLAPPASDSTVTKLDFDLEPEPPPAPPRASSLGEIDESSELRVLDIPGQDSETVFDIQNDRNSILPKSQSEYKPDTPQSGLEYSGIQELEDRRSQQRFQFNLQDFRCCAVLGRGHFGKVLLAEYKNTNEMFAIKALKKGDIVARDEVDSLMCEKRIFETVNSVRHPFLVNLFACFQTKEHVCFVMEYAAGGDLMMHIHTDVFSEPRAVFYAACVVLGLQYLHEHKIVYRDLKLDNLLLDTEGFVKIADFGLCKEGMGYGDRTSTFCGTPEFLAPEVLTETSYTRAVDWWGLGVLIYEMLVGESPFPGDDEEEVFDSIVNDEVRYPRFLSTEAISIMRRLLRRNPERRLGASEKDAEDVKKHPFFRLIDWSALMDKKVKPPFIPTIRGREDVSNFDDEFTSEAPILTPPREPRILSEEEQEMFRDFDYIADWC"}, "RAF1 (human)": {"target": "RAF1 (human) (UniProt P04049)"}, "[3]": {"tested_on": "RET (human), P07949 [V804M]"}, "RIPK2 (human)": {"target": "RIPK2 (human) (UniProt O43353)"}, "ROCK2 (human)": {"target": "ROCK2 (human) (UniProt O75116)"}, "RPS6KA3 KD1 (human)": {"target": "RPS6KA3 KD1 (human) (UniProt P51812)"}, "RPS6KA5 KD2 (human)": {"target": "RPS6KA5 KD2 (human) (UniProt O75582)"}, "SNRK (human)": {"target": "SNRK (human) (UniProt Q9NRH2)"}, "SRMS (human)": {"target": "SRMS (human) (UniProt Q9H3Y6)"}, "SRPK2 (human)": {"target": "SRPK2 (human) (UniProt P78362)", "sequence (P78362 whole entry, looked up)": "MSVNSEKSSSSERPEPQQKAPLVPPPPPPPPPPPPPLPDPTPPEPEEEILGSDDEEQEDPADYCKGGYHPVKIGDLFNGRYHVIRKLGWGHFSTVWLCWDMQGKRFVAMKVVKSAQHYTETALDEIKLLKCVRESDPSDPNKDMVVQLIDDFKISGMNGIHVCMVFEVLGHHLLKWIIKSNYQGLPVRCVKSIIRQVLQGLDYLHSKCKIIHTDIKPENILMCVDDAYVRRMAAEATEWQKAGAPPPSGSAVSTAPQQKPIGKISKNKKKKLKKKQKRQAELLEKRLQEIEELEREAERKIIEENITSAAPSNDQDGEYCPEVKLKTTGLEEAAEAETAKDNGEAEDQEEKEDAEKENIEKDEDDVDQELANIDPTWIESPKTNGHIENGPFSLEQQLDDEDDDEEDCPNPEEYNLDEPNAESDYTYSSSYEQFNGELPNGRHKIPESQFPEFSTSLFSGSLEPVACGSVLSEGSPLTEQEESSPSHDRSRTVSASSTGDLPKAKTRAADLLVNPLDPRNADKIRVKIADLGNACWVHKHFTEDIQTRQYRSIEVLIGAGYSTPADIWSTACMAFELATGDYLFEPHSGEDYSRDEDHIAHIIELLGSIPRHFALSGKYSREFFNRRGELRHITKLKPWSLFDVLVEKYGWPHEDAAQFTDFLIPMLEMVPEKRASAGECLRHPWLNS"}, "SRPK3 (human)": {"target": "SRPK3 (human) (UniProt Q9UPE1)"}, "STK25 (human)": {"target": "STK25 (human) (UniProt O00506)", "sequence (O00506 whole entry, looked up)": "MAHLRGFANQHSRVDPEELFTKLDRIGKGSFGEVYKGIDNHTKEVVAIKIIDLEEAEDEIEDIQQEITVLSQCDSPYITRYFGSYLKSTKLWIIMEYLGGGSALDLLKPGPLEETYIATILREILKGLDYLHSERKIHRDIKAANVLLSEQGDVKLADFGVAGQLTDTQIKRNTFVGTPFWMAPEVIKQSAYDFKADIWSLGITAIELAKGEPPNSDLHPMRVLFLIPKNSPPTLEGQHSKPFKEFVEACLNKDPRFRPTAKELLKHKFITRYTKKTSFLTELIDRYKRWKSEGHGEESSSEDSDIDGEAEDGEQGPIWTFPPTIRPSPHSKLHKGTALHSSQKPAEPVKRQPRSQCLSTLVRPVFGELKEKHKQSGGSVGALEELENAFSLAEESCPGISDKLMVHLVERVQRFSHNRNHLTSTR"}, "STK3 (human)": {"target": "STK3 (human) (UniProt Q13188)"}, "STK38L (human)": {"target": "STK38L (human) (UniProt Q9Y2H1)"}, "TGFBR2 (human)": {"target": "TGFBR2 (human) (UniProt P37173)"}, "ULK1 (human)": {"target": "ULK1 (human) (UniProt O75385)"}, "WEE1 (human)": {"target": "WEE1 (human) (UniProt P30291)"}, "YSK4 (human)": {"target": "YSK4 (human) (UniProt Q56UN5)"}}}
{"smiles": "COc1cc(C(=O)N2CCC(N3CCN(C)CC3)CC2)ccc1Nc1ncc2c(n1)N(C)c1ccccc1C(=O)N2C", "values": [{"measurement": "kinase still bound, per cent of control", "setting": "CDK13 (human)", "result": 100, "unit": "%"}, {"measurement": "kinase still bound, per cent of control", "setting": "CDK19 (human)", "result": 100, "unit": "%"}, {"measurement": "kinase still bound, per cent of control", "setting": "CDK8 (human)", "result": 100, "unit": "%"}, {"measurement": "kinase still bound, per cent of control", "setting": "CHEK2 (human)", "result": 66, "unit": "%"}, {"measurement": "kinase still bound, per cent of control", "setting": "CLK2 (human)", "result": 72, "unit": "%"}, {"measurement": "kinase still bound, per cent of control", "setting": "CRK2 (P.falciparum)", "result": 100, "unit": "%"}, {"measurement": "kinase still bound, per cent of control", "setting": "DSTYK (human)", "result": 16, "unit": "%"}, {"measurement": "kinase still bound, per cent of control", "setting": "[1]", "result": 84, "unit": "%"}, {"measurement": "kinase still bound, per cent of control", "setting": "FGR (human)", "result": 84, "unit": "%"}, {"measurement": "kinase still bound, per cent of control", "setting": "HIPK2 (human)", "result": 88, "unit": "%"}, {"measurement": "kinase still bound, per cent of control", "setting": "IRAK1 (human)", "result": 100, "unit": "%"}, {"measurement": "kinase still bound, per cent of control", "setting": "IRAK4 (human)", "result": 83, "unit": "%"}, {"measurement": "kinase still bound, per cent of control", "setting": "[2]", "result": 100, "unit": "%"}, {"measurement": "kinase still bound, per cent of control", "setting": "LCK (human)", "result": 100, "unit": "%"}, {"measurement": "kinase still bound, per cent of control", "setting": "MAP2K3 (human)", "result": 75, "unit": "%"}, {"measurement": "kinase still bound, per cent of control", "setting": "MAP3K15 (human)", "result": 69, "unit": "%"}, {"measurement": "kinase still bound, per cent of control", "setting": "MAPK9 (human)", "result": 94, "unit": "%"}, {"measurement": "kinase still bound, per cent of control", "setting": "MET (human)", "result": 100, "unit": "%"}, {"measurement": "kinase still bound, per cent of control", "setting": "MYLK4 (human)", "result": 80, "unit": "%"}, {"measurement": "kinase still bound, per cent of control", "setting": "NEK3 (human)", "result": 100, "unit": "%"}, {"measurement": "kinase still bound, per cent of control", "setting": "PDGFRA (human)", "result": 100, "unit": "%"}, {"measurement": "kinase still bound, per cent of control", "setting": "PDPK1 (human)", "result": 100, "unit": "%"}, {"measurement": "kinase still bound, per cent of control", "setting": "PKN2 (human)", "result": 95, "unit": "%"}, {"measurement": "kinase still bound, per cent of control", "setting": "RAF1 (human)", "result": 100, "unit": "%"}, {"measurement": "kinase still bound, per cent of control", "setting": "[3]", "result": 80, "unit": "%"}, {"measurement": "kinase still bound, per cent of control", "setting": "RIPK2 (human)", "result": 100, "unit": "%"}, {"measurement": "kinase still bound, per cent of control", "setting": "ROCK2 (human)", "result": 87, "unit": "%"}, {"measurement": "kinase still bound, per cent of control", "setting": "RPS6KA3 KD1 (human)", "result": 77, "unit": "%"}, {"measurement": "kinase still bound, per cent of control", "setting": "RPS6KA5 KD2 (human)", "result": 92, "unit": "%"}, {"measurement": "kinase still bound, per cent of control", "setting": "SNRK (human)", "result": 94, "unit": "%"}, {"measurement": "kinase still bound, per cent of control", "setting": "SRMS (human)", "result": 77, "unit": "%"}, {"measurement": "kinase still bound, per cent of control", "setting": "SRPK2 (human)", "result": 100, "unit": "%"}, {"measurement": "kinase still bound, per cent of control", "setting": "SRPK3 (human)", "result": 72, "unit": "%"}, {"measurement": "kinase still bound, per cent of control", "setting": "STK25 (human)", "result": 68, "unit": "%"}, {"measurement": "kinase still bound, per cent of control", "setting": "STK3 (human)", "result": 71, "unit": "%"}, {"measurement": "kinase still bound, per cent of control", "setting": "STK38L (human)", "result": 100, "unit": "%"}, {"measurement": "kinase still bound, per cent of control", "setting": "TGFBR2 (human)", "result": 100, "unit": "%"}, {"measurement": "kinase still bound, per cent of control", "setting": "ULK1 (human)", "result": 80, "unit": "%"}, {"measurement": "kinase still bound, per cent of control", "setting": "WEE1 (human)", "result": 100, "unit": "%"}, {"measurement": "kinase still bound, per cent of control", "setting": "YSK4 (human)", "result": 99, "unit": "%"}]}
{"smiles": "CN(C)C/C=C/C(=O)Nc1ccc(C(=O)Nc2cccc(Nc3nccc(-c4cccnc4)n3)c2)cc1", "values": [{"measurement": "kinase still bound, per cent of control", "setting": "CDK13 (human)", "result": 86, "unit": "%"}, {"measurement": "kinase still bound, per cent of control", "setting": "CDK19 (human)", "result": 100, "unit": "%"}, {"measurement": "kinase still bound, per cent of control", "setting": "CDK8 (human)", "result": 78, "unit": "%"}, {"measurement": "kinase still bound, per cent of control", "setting": "CHEK2 (human)", "result": 86, "unit": "%"}, {"measurement": "kinase still bound, per cent of control", "setting": "CLK2 (human)", "result": 2.2, "unit": "%"}, {"measurement": "kinase still bound, per cent of control", "setting": "CRK2 (P.falciparum)", "result": 100, "unit": "%"}, {"measurement": "kinase still bound, per cent of control", "setting": "DSTYK (human)", "result": 100, "unit": "%"}, {"measurement": "kinase still bound, per cent of control", "setting": "[1]", "result": 100, "unit": "%"}, {"measurement": "kinase still bound, per cent of control", "setting": "FGR (human)", "result": 86, "unit": "%"}, {"measurement": "kinase still bound, per cent of control", "setting": "HIPK2 (human)", "result": 2.6, "unit": "%"}, {"measurement": "kinase still bound, per cent of control", "setting": "IRAK1 (human)", "result": 0.9, "unit": "%"}, {"measurement": "kinase still bound, per cent of control", "setting": "IRAK4 (human)", "result": 34, "unit": "%"}, {"measurement": "kinase still bound, per cent of control", "setting": "[2]", "result": 56, "unit": "%"}, {"measurement": "kinase still bound, per cent of control", "setting": "LCK (human)", "result": 100, "unit": "%"}, {"measurement": "kinase still bound, per cent of control", "setting": "MAP2K3 (human)", "result": 24, "unit": "%"}, {"measurement": "kinase still bound, per cent of control", "setting": "MAP3K15 (human)", "result": 56, "unit": "%"}, {"measurement": "kinase still bound, per cent of control", "setting": "MAPK9 (human)", "result": 2.5, "unit": "%"}, {"measurement": "kinase still bound, per cent of control", "setting": "MET (human)", "result": 100, "unit": "%"}, {"measurement": "kinase still bound, per cent of control", "setting": "MYLK4 (human)", "result": 36, "unit": "%"}, {"measurement": "kinase still bound, per cent of control", "setting": "NEK3 (human)", "result": 17, "unit": "%"}, {"measurement": "kinase still bound, per cent of control", "setting": "PDGFRA (human)", "result": 4, "unit": "%"}, {"measurement": "kinase still bound, per cent of control", "setting": "PDPK1 (human)", "result": 100, "unit": "%"}, {"measurement": "kinase still bound, per cent of control", "setting": "PKN2 (human)", "result": 79, "unit": "%"}, {"measurement": "kinase still bound, per cent of control", "setting": "RAF1 (human)", "result": 100, "unit": "%"}, {"measurement": "kinase still bound, per cent of control", "setting": "[3]", "result": 74, "unit": "%"}, {"measurement": "kinase still bound, per cent of control", "setting": "RIPK2 (human)", "result": 84, "unit": "%"}, {"measurement": "kinase still bound, per cent of control", "setting": "ROCK2 (human)", "result": 41, "unit": "%"}, {"measurement": "kinase still bound, per cent of control", "setting": "RPS6KA3 KD1 (human)", "result": 62, "unit": "%"}, {"measurement": "kinase still bound, per cent of control", "setting": "RPS6KA5 KD2 (human)", "result": 98, "unit": "%"}, {"measurement": "kinase still bound, per cent of control", "setting": "SNRK (human)", "result": 66, "unit": "%"}, {"measurement": "kinase still bound, per cent of control", "setting": "SRMS (human)", "result": 85, "unit": "%"}, {"measurement": "kinase still bound, per cent of control", "setting": "SRPK2 (human)", "result": 100, "unit": "%"}, {"measurement": "kinase still bound, per cent of control", "setting": "SRPK3 (human)", "result": 28, "unit": "%"}, {"measurement": "kinase still bound, per cent of control", "setting": "STK25 (human)", "result": 83, "unit": "%"}, {"measurement": "kinase still bound, per cent of control", "setting": "STK3 (human)", "result": 100, "unit": "%"}, {"measurement": "kinase still bound, per cent of control", "setting": "STK38L (human)", "result": 100, "unit": "%"}, {"measurement": "kinase still bound, per cent of control", "setting": "TGFBR2 (human)", "result": 50, "unit": "%"}, {"measurement": "kinase still bound, per cent of control", "setting": "ULK1 (human)", "result": 97, "unit": "%"}, {"measurement": "kinase still bound, per cent of control", "setting": "WEE1 (human)", "result": 100, "unit": "%"}, {"measurement": "kinase still bound, per cent of control", "setting": "YSK4 (human)", "result": 0.1, "unit": "%"}]}
